Source: patent publication US7550451B2, “Progesterone receptor modulators with increased antigonadotropic activity for female birth control and hormone replacement therapy” (Bayer Schering Pharma AG, priority 2002, dated 2009)

Columns and labels:
adult female rats = assay: Nidation-inhibiting test (antifertile effects in the perinidation phase); format: in vivo; settings: day 5-7 of pregnancy, rat
Description: The determination of the progesterone-antagonistic activities was carried out on adult female rats in the nidation-inhibiting test. The principle of the test is described as follows: progesterone preserves pregnancy in all stages. An early-abortive action can accordingly be expected from competitive progesterone antagonists. Female rats (Schoe strain: WIST Tierzucht GmbH Schönwalde) with a weight of 180-200 g were subjected daily to a cycle control and paired up in proestrus. The beginning of pregnancy was determined by detecting sperm in the vaginal smear on the same day (=day 1 of pregnancy=d1 p.c.). From the 5th-7th day of pregnancy, the test substances were injected subcutaneously daily. On the 9th day, vaginal smears were taken, then the animals were autopsied and the uteri were prepared. The degeneration of implants and pathological, hemorrhagic and otherwise abnormal nidation sites were counted as abortions and are shown in Table 2.

Glucocorticoid receptor = target: T1, Glucocorticoid receptor (Rattus norvegicus, UniProt P06536); assay: Receptor binding affinity, glucocorticoid receptor (competitive binding, 3H-dexamethasone); settings: Dexamethasone = 100%; thymus cytosol of adrenalectomized rat
T1 construct: Thymus cytosol of the adrenalectomized rat; from tissue; host or cells: thymus cytosol of adrenalectomized rat
T1 sequence (P06536 1-795): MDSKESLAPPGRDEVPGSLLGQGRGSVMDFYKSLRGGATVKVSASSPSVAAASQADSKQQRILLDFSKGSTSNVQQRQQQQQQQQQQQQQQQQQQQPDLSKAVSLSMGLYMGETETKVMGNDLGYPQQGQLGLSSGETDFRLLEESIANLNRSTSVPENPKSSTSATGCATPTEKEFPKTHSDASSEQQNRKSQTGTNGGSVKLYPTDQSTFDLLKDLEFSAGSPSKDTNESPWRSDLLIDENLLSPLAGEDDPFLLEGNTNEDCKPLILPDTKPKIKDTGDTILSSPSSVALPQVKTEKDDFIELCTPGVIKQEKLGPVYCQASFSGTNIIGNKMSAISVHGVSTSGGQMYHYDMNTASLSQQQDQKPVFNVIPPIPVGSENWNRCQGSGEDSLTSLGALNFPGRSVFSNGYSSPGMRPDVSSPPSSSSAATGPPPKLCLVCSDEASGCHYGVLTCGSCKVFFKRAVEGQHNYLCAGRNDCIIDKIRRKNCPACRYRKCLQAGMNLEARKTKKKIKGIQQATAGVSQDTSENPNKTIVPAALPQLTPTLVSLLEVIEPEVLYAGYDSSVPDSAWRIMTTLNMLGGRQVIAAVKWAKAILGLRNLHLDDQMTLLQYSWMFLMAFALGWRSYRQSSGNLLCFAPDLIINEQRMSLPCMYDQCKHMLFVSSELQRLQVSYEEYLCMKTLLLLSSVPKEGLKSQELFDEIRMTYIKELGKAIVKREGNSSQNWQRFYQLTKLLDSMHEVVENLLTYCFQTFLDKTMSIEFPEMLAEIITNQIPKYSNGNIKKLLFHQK
Description: (§1) The receptor binding affinity was determined by competitive binding of a specifically binding ^3H-labeled hormone (tracer) and the compound to be tested on receptors in the cytosol from animal target organs. In this case, receptor saturation and reaction equilibrium were sought.
(§2) The tracers and increasing concentrations of the compound to be tested (competitor) were co-incubated with the receptor-containing cytosol fraction at 0-4° C. over 18 hours. After separation of the unbonded tracer with carbon-dextran suspension, the receptor-bonded tracer portion was measured for each concentration, and the IC50 was determined from the concentration sequence. As a quotient of the IC50 values of the reference substance and the compound to be tested (×100%), the relative molar binding affinity (RBA) was calculated (RBA of the reference substance=100%).
Thymus cytosol of the adrenalectomized rat, thymi stored at −30° C.; buffer: TED. Tracer: ^3H-Dexamethasone, 20 nmol; reference substance: dexamethasone.

Androgen receptor = target: T2, Androgen receptor (Rattus norvegicus, UniProt P15207); assay: Receptor binding affinity, androgen receptor (competitive binding, 3H-metribolone); settings: prostate cytosol of castrated rat; for AR relative molar binding affinity (RBA) a) against RU 1881: reference RU 1881 (metribolone); for AR relative molar binding affinity (RBA) b) against dihydrotestosterone (DHT): reference dihydrotestosterone
T2 construct: Prostate cytosol of the castrated rat; from tissue; host or cells: prostate cytosol of castrated rat
T2 sequence (P15207 1-902): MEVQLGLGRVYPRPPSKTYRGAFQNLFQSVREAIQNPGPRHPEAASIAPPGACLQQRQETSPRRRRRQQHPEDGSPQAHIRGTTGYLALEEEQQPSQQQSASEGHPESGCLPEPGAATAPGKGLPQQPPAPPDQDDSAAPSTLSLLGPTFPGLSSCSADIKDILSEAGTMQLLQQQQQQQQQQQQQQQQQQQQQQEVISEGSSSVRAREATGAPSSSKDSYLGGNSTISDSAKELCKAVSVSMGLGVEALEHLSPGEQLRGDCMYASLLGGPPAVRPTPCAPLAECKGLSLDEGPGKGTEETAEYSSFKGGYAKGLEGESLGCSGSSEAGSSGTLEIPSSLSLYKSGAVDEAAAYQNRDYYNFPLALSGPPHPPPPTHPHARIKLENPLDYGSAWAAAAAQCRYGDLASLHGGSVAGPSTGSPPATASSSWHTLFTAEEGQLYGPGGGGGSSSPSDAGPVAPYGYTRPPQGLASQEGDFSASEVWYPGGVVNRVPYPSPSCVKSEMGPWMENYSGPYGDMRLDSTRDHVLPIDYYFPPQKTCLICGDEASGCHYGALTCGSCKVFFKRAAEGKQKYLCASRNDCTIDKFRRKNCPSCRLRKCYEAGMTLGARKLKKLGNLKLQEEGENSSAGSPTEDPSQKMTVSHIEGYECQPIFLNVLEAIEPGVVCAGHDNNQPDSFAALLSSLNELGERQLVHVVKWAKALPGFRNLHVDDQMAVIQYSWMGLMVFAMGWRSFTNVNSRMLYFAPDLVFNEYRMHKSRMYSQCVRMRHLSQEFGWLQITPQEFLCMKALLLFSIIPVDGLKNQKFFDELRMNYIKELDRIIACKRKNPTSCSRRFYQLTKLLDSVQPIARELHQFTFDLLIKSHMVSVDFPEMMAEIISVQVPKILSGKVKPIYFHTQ
Description: as §1, §2
Prostate cytosol of the castrated rat; prostates stored at −30° C.; buffer: TED with 10% glycerol as well as 2 μmol of triamcinolone acetonide. Tracer: ^3H-metribolone 4 nmol; reference substances: metribolone (RU 1881) or 5α-dihydrotestosterone.

Progesterone receptor = target: T3, Progesterone receptor (Oryctolagus cuniculus, UniProt P06186); assay: Receptor binding affinity, progesterone receptor (competitive binding, 3H-ORG 2058); settings: Progesterone = 100%; uterus cytosol of estradiol-primed rabbit
T3 construct: Uterus cytosol of the estradiol-primed rabbit; from tissue; host or cells: uterus cytosol of estradiol-primed rabbit
T3 sequence (P06186 1-930): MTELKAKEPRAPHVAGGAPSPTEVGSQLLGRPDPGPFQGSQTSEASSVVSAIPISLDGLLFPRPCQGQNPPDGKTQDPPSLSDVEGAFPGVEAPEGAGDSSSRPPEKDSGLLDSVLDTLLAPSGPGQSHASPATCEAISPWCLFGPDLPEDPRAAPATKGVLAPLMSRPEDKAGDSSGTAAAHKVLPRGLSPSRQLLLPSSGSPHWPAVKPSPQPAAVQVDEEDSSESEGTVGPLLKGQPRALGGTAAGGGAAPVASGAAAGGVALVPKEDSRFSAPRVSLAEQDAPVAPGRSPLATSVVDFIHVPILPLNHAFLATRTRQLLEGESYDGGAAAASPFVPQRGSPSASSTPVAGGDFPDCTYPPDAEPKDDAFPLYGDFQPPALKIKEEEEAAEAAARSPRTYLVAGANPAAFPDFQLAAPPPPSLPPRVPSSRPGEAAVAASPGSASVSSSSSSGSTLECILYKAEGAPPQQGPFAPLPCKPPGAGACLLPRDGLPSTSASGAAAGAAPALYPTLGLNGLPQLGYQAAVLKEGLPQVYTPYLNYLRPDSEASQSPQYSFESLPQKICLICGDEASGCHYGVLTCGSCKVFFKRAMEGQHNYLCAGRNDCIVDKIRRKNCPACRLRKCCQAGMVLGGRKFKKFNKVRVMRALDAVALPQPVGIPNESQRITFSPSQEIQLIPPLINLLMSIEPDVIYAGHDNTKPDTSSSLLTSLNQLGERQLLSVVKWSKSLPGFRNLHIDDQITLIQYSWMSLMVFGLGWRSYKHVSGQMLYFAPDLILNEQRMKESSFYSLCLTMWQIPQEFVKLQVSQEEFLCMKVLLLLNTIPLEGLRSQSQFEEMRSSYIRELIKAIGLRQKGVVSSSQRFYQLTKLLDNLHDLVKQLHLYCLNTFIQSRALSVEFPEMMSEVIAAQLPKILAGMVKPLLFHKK
Description: as §1, §2
Uterus cytosol of the estradiol-primed rabbit; homogenized in TED buffer (20 mmol of Tris/HCl, pH 7.4; 1 mmol of ethylenediamine tetraacetate, 2 mmol of dithiothreitol) with 250 mmol of saccharose; stored at −30° C. Tracer: ^3H-ORG 2058, 5 nmol; reference substance: progesterone.

With CC#C[C@]1(O)CC[C@H]2[C@@H]3CCC4=CC(=O)CCC4=C3[C@@H](c3ccc(N(C)C)cc3)C[C@@]21C [RU 38 486, reference compound] the “Rate of Animals with Complete Inhibition of Nidation” value (adult female rats; 0.3 mg/animal/day s.c.) was 0/5, the “Rate of Animals with Complete Inhibition of Nidation” value (adult female rats; 1.0 mg/animal/day s.c.) was 2/5 and the “Rate of Animals with Complete Inhibition of Nidation” value (adult female rats; 3.0 mg/animal/day s.c.) was 5/5.
In the case of CO[C@H]1CC[C@H]2[C@@H]3CCC4=CC(=O)CCC4=C3[C@@H](c3ccc(/C=N/O)cc3)C[C@]12C [Example 5, 4-(17β-Methoxy-3-oxoestra-4,9-dien-11β-yl)benzaldehyde-1(E)-oxime], the “Rate of Animals with Complete Inhibition of Nidation” value (adult female rats; 1.0 mg/animal/day s.c.) is reported as 0/4, the “GR relative molar binding affinity (RBA)” value (Glucocorticoid receptor) is reported as 14% and the “AR relative molar binding affinity (RBA) a) against RU 1881” value (Androgen receptor) is reported as “a) 21%”. The “AR relative molar binding affinity (RBA) b) against dihydrotestosterone (DHT)” value (“AR relative molar binding affinity … (DHT)” for short) (Androgen receptor) was “b) 32%” and the “PR relative molar binding affinity (RBA)” value (Progesterone receptor) was 159%.
CC12CC(c3ccc(C=NO)cc3)C3=C4CCC(=O)C=C4CCC3C1CCC2OCc1ccccc1 (stereo not drawn) [Example 17, 4-(17β-Benzyloxy-3-oxoestra-4,9-dien-11β-yl)benzaldehyde-1(E)-oxime] was tested, and the “GR relative molar binding affinity (RBA)” value (Glucocorticoid receptor) was 8%, the “AR relative molar binding affinity (RBA) a) against RU 1881” value (Androgen receptor) was “a) 2%” and the “AR relative molar binding affinity … (DHT)” value (Androgen receptor) was “b) 3%”. The “PR relative molar binding affinity (RBA)” value (Progesterone receptor) was 31%.
In the case of C[C@]12C[C@H](c3ccc(/C=N/O)cc3)C3=C4CCC(=O)C=C4CC[C@H]3[C@@H]1CC[C@@H]2OC(=O)c1ccccc1 [Example 16], the “GR relative molar binding affinity (RBA)” value (Glucocorticoid receptor) is reported as 3%, the “AR relative molar binding affinity (RBA) a) against RU 1881” value (Androgen receptor) is reported as “a) 1.4%” and the “AR relative molar binding affinity … (DHT)” value (Androgen receptor) is reported as “b) 2.2%”. The “PR relative molar binding affinity (RBA)” value (Progesterone receptor) was 8%.
For CCNC(=O)O/N=C/c1ccc([C@H]2C[C@@]3(C)[C@@H](CC[C@@]3(O)CO)[C@@H]3CCC4=CC(=O)CCC4=C32)cc1 [Example 20, 4-[17β-Hydroxy-17α-hydroxymethyl-3-oxoestra-4,9-dien-11β-yl]benzaldehyde-1-(E)-[O-(ethylamino)-carbonyl]oxime], the “GR relative molar binding affinity (RBA)” value (Glucocorticoid receptor) was 5%, the “AR relative molar binding affinity (RBA) a) against RU 1881” value (Androgen receptor) was “a) 4%” and the “AR relative molar binding affinity … (DHT)” value (Androgen receptor) was “b) 7%”. For the same compound, the “PR relative molar binding affinity (RBA)” value (Progesterone receptor) was 12%.
With CC12CC(c3ccc(C=NO)cc3)C3=C4CCC(=O)C(Br)=C4CCC3C1CCC2O (stereo not drawn) [Example 19, 4-(4′-Bromo-17β-hydroxy-3-oxoestra-4,9-dien-11β-yl)benzaldehyde-1(E)-oxime] the “GR relative molar binding affinity (RBA)” value (Glucocorticoid receptor) was 0.5%, the “AR relative molar binding affinity (RBA) a) against RU 1881” value (Androgen receptor) was “a) 9%” and the “AR relative molar binding affinity … (DHT)” value (Androgen receptor) was “b) 16%”. For the same compound, the “PR relative molar binding affinity (RBA)” value (Progesterone receptor) was 51%.
For CC1(O)CCC2C3CCC4=C(Br)C(=O)CCC4=C3C(c3ccc(C=NO)cc3)CC21C (stereo not drawn) [Example 6, 4-(4′-Bromo-17β-hydroxy-17α-methyl-3-oxoestra-4,9-dien-11β-yl)benzaldehyde-1(E)-oxime], the “Rate of Animals with Complete Inhibition of Nidation” value (adult female rats; 1.0 mg/animal/day s.c.) was 5/5, the “GR relative molar binding affinity (RBA)” value (Glucocorticoid receptor) was 0.76% and the “AR relative molar binding affinity (RBA) a) against RU 1881” value (Androgen receptor) was “a) 14%”. The “AR relative molar binding affinity … (DHT)” value (Androgen receptor) was “b) 22%” and the “PR relative molar binding affinity (RBA)” value (Progesterone receptor) was 106%.
